Patent US4868321A, “Isothiocyanate intermediates” (FMC Corporation, priority 1988, dated 1989)

What was measured:
Type in all cases: in vivo
Field Bindweed [1] = assay: Postemergence Herbicidal Activity, Field Bindweed; conditions: post-emergence; for pest or weed control at 1000 g/ha: 1.0 kg/ha; for pest or weed control at 500 g/ha: 0.5 kg/ha
Excerpt: (§1) The herbicidal data in the following Tables 3 and 4 was obtained in the manner described in PCT published application no. WO 85/01939, previously mentioned, usually employing solutions of the herbicidal compound in 50/50 acetone/water mixtures. In those tables, the test compounds are identified by numbers which correspond to those in Table 1, "kg/ha" is kilograms per hectare, and "% C" is percent control.

Cotton [2] = assay: Postemergence Herbicidal Activity, Cotton; conditions: Gossypium hirsutum, post-emergence; for plant injury at 1000 g/ha: 1.0 kg/ha; for plant injury at 500 g/ha: 0.5 kg/ha
Excerpt: as §1

Morningglory [3] = assay: Preemergence Herbicidal Activity, Morningglory; conditions: Ipomoea, pre-emergence; for pest or weed control at 1000 g/ha: 1.0 kg/ha; for pest or weed control at 500 g/ha: 0.5 kg/ha
Excerpt: as §1

Barnyardgrass [4] = assay: Postemergence Herbicidal Activity, Barnyardgrass; conditions: Echinochloa crus-galli, post-emergence; for pest or weed control at 1000 g/ha: 1.0 kg/ha; for pest or weed control at 500 g/ha: 0.5 kg/ha
Excerpt: (§2) The herbicidal data in the following Tables 3 and 4 was obtained in the manner described in PCT published application no. […] In those tables, the test compounds are identified by numbers which correspond to those in Table 1, "kg/ha" is kilograms per hectare, and "% C" is percent control.

Rice [5] = assay: Postemergence Herbicidal Activity, Rice; conditions: Oryza sativa, post-emergence; for plant injury at 1000 g/ha: 1.0 kg/ha; for plant injury at 500 g/ha: 0.5 kg/ha
Excerpt: as §2

Wheat [6] = assay: Preemergence Herbicidal Activity, Wheat; conditions: Triticum aestivum, pre-emergence; for plant injury at 1000 g/ha: 1.0 kg/ha; for plant injury at 500 g/ha: 0.5 kg/ha
Excerpt: as §2

Cotton [7] = assay: Preemergence Herbicidal Activity, Cotton; conditions: Gossypium hirsutum, pre-emergence; for plant injury at 1000 g/ha: 1.0 kg/ha; for plant injury at 500 g/ha: 0.5 kg/ha
Excerpt: as §1

Green Foxtail [8] = assay: Postemergence Herbicidal Activity, Green Foxtail; conditions: Setaria viridis, post-emergence; for pest or weed control at 1000 g/ha: 1.0 kg/ha; for pest or weed control at 500 g/ha: 0.5 kg/ha
Excerpt: as §2

Field Bindweed [9] = assay: Preemergence Herbicidal Activity, Field Bindweed; conditions: pre-emergence; for pest or weed control at 1000 g/ha: 1.0 kg/ha; for pest or weed control at 500 g/ha: 0.5 kg/ha
Excerpt: as §1

Velvetleaf [10] = assay: Preemergence Herbicidal Activity, Velvetleaf; conditions: Abutilon theophrasti, pre-emergence; for pest or weed control at 1000 g/ha: 1.0 kg/ha; for pest or weed control at 500 g/ha: 0.5 kg/ha
Excerpt: as §1

Field Corn [11] = assay: Postemergence Herbicidal Activity, Field Corn; conditions: Zea mays, post-emergence; for plant injury at 1000 g/ha: 1.0 kg/ha; for plant injury at 500 g/ha: 0.5 kg/ha
Excerpt: as §2

Morningglory [12] = assay: Postemergence Herbicidal Activity, Morningglory; conditions: Ipomoea, post-emergence; for pest or weed control at 1000 g/ha: 1.0 kg/ha; for pest or weed control at 500 g/ha: 0.5 kg/ha
Excerpt: as §1

Johnsongrass [13] = assay: Preemergence Herbicidal Activity, Johnsongrass; conditions: Sorghum halepense, pre-emergence; for pest or weed control at 1000 g/ha: 1.0 kg/ha; for pest or weed control at 500 g/ha: 0.5 kg/ha
Excerpt: as §2

Green Foxtail [14] = assay: Preemergence Herbicidal Activity, Green Foxtail; conditions: Setaria viridis, pre-emergence; for pest or weed control at 1000 g/ha: 1.0 kg/ha; for pest or weed control at 500 g/ha: 0.5 kg/ha
Excerpt: as §2

Soybean [15] = assay: Postemergence Herbicidal Activity, Soybean; conditions: Glycine max, post-emergence; for plant injury at 1000 g/ha: 1.0 kg/ha; for plant injury at 500 g/ha: 0.5 kg/ha
Excerpt: as §2

Soybean [16] = assay: Preemergence Herbicidal Activity, Soybean; conditions: Glycine max, pre-emergence; for plant injury at 1000 g/ha: 1.0 kg/ha; for plant injury at 500 g/ha: 0.5 kg/ha
Excerpt: as §2

Rice [17] = assay: Preemergence Herbicidal Activity, Rice; conditions: Oryza sativa, pre-emergence; for plant injury at 1000 g/ha: 1.0 kg/ha; for plant injury at 500 g/ha: 0.5 kg/ha
Excerpt: as §2

Johnsongrass [18] = assay: Postemergence Herbicidal Activity, Johnsongrass; conditions: Sorghum halepense, post-emergence; for pest or weed control at 1000 g/ha: 1.0 kg/ha; for pest or weed control at 500 g/ha: 0.5 kg/ha
Excerpt: as §2

Velvetleaf [19] = assay: Postemergence Herbicidal Activity, Velvetleaf; conditions: Abutilon theophrasti, post-emergence; for pest or weed control at 1000 g/ha: 1.0 kg/ha; for pest or weed control at 500 g/ha: 0.5 kg/ha
Excerpt: as §1

Wheat [20] = assay: Postemergence Herbicidal Activity, Wheat; conditions: Triticum aestivum, post-emergence; for plant injury at 1000 g/ha: 1.0 kg/ha; for plant injury at 500 g/ha: 0.5 kg/ha
Excerpt: as §2

Field Corn [21] = assay: Preemergence Herbicidal Activity, Field Corn; conditions: Zea mays, pre-emergence; for plant injury at 1000 g/ha: 1.0 kg/ha; for plant injury at 500 g/ha: 0.5 kg/ha
Excerpt: as §2

Barnyardgrass [22] = assay: Preemergence Herbicidal Activity, Barnyardgrass; conditions: Echinochloa crus-galli, pre-emergence; for pest or weed control at 1000 g/ha: 1.0 kg/ha; for pest or weed control at 500 g/ha: 0.5 kg/ha
Excerpt: as §2

## CCOC(=O)CN(c1cc(-n2nnn(CCCF)c2=O)c(F)cc1Cl)S(=O)(=O)CC [Compound 17, ethyl [2-chloro-4-fluoro-5-[1,4-dihydro-5-oxo-4-(3-fluoropropyl)tetrazol-1-yl]-phenyl(N--ethylsulfonyl)amino]-acetate]
Field Bindweed [1]
  pest or weed control at 1000 g/ha: 80%
Cotton [2]
  plant injury at 1000 g/ha: 90%
Morningglory [3]
  pest or weed control at 1000 g/ha: 30%
Barnyardgrass [4]
  pest or weed control at 1000 g/ha: 40%
Rice [5]
  plant injury at 1000 g/ha: 20%
Wheat [6]
  plant injury at 1000 g/ha: 20%
Cotton [7]
  plant injury at 1000 g/ha: 10%
Green Foxtail [8]
  pest or weed control at 1000 g/ha: 40%
Field Bindweed [9]
  pest or weed control at 1000 g/ha: 10%
Velvetleaf [10]
  pest or weed control at 1000 g/ha: 90%
Field Corn [11]
  plant injury at 1000 g/ha: 60%
Morningglory [12]
  pest or weed control at 1000 g/ha: 60%
Johnsongrass [13]
  pest or weed control at 1000 g/ha: 60%
Green Foxtail [14]
  pest or weed control at 1000 g/ha: 30%
Soybean [15]
  plant injury at 1000 g/ha: 50%
Soybean [16]
  plant injury at 1000 g/ha: 10%
Rice [17]
  plant injury at 1000 g/ha: 10%
Johnsongrass [18]
  pest or weed control at 1000 g/ha: 40%
Velvetleaf [19]
  pest or weed control at 1000 g/ha: 95%
Wheat [20]
  plant injury at 1000 g/ha: 40%
Field Corn [21]
  plant injury at 1000 g/ha: 10%
Barnyardgrass [22]
  pest or weed control at 1000 g/ha: 20%

## CCS(=O)(=O)N(c1cc(-n2nnn(CCCF)c2=O)c(F)cc1F)S(=O)(=O)CC [Compound 20, 1-(2,4-difluoro-5-[bis(N--ethylsulfonyl)amino]phenyl]-1,4-dihydro-4-(3-fluoropropyl)-5H--tetrazol-5-one]
Field Bindweed [1]
  pest or weed control at 500 g/ha: 30%
Cotton [2]
  plant injury at 500 g/ha: 90%
Morningglory [3]
  pest or weed control at 500 g/ha: 70%
Barnyardgrass [4]
  pest or weed control at 500 g/ha: 30%
Rice [5]
  plant injury at 500 g/ha: 20%
Wheat [6]
  plant injury at 500 g/ha: 30%
Cotton [7]
  plant injury at 500 g/ha: 90%
Green Foxtail [8]
  pest or weed control at 500 g/ha: 40%
Field Bindweed [9]
  pest or weed control at 500 g/ha: 20%
Velvetleaf [10]
  pest or weed control at 500 g/ha: 100%
Field Corn [11]
  plant injury at 500 g/ha: 20%
Morningglory [12]
  pest or weed control at 500 g/ha: 90%
Johnsongrass [13]
  pest or weed control at 500 g/ha: 90%
Green Foxtail [14]
  pest or weed control at 500 g/ha: 95%
Soybean [15]
  plant injury at 500 g/ha: 30%
Soybean [16]
  plant injury at 500 g/ha: 20%
Rice [17]
  plant injury at 500 g/ha: 70%
Johnsongrass [18]
  pest or weed control at 500 g/ha: 30%
Velvetleaf [19]
  pest or weed control at 500 g/ha: 100%
Wheat [20]
  plant injury at 500 g/ha: 50%
Field Corn [21]
  plant injury at 500 g/ha: 90%
Barnyardgrass [22]
  pest or weed control at 500 g/ha: 90%

## CCS(=O)(=O)N(c1cc(-n2nnn(CCCF)c2=O)c(F)cc1Br)S(=O)(=O)CC [Compound 22, 1-[4-bromo-2-fluoro-5-[bis(N--ehtylsulfonyl)amino]phenyl]-1,4-dihydro-4-(3-fluoropropyl)-5H--tetrazol-5-one]
Field Bindweed [1]
  pest or weed control at 1000 g/ha: 95%
Cotton [2]
  plant injury at 1000 g/ha: 100%
Morningglory [3]
  pest or weed control at 1000 g/ha: 100%
Barnyardgrass [4]
  pest or weed control at 1000 g/ha: 100%
Rice [5]
  plant injury at 1000 g/ha: 80%
Wheat [6]
  plant injury at 1000 g/ha: 90%
Cotton [7]
  plant injury at 1000 g/ha: 100%
Green Foxtail [8]
  pest or weed control at 1000 g/ha: 100%
Field Bindweed [9]
  pest or weed control at 1000 g/ha: 100%
Velvetleaf [10]
  pest or weed control at 1000 g/ha: 100%
Field Corn [11]
  plant injury at 1000 g/ha: 100%
Morningglory [12]
  pest or weed control at 1000 g/ha: 95%
Johnsongrass [13]
  pest or weed control at 1000 g/ha: 100%
Green Foxtail [14]
  pest or weed control at 1000 g/ha: 100%
Soybean [15]
  plant injury at 1000 g/ha: 95%
Soybean [16]
  plant injury at 1000 g/ha: 60%
Rice [17]
  plant injury at 1000 g/ha: 80%
Johnsongrass [18]
  pest or weed control at 1000 g/ha: 100%
Velvetleaf [19]
  pest or weed control at 1000 g/ha: 100%
Wheat [20]
  plant injury at 1000 g/ha: 90%
Field Corn [21]
  plant injury at 1000 g/ha: 95%
Barnyardgrass [22]
  pest or weed control at 1000 g/ha: 100%

## CCCS(=O)(=O)N(c1cc(-n2nnn(CCCF)c2=O)c(F)cc1F)S(=O)(=O)CCC [Compound 25]
Field Bindweed [1]
  pest or weed control at 500 g/ha: 40%
Cotton [2]
  plant injury at 500 g/ha: 40%
Morningglory [3]
  pest or weed control at 500 g/ha: 10%
Barnyardgrass [4]
  pest or weed control at 500 g/ha: 20%
Rice [5]
  plant injury at 500 g/ha: 20%
Wheat [6]
  plant injury at 500 g/ha: 20%
Cotton [7]
  plant injury at 500 g/ha: 10%
Green Foxtail [8]
  pest or weed control at 500 g/ha: 30%
Field Bindweed [9]
  pest or weed control at 500 g/ha: 0%
Velvetleaf [10]
  pest or weed control at 500 g/ha: 20%
Field Corn [11]
  plant injury at 500 g/ha: 60%
Morningglory [12]
  pest or weed control at 500 g/ha: 30%
Johnsongrass [13]
  pest or weed control at 500 g/ha: 60%
Green Foxtail [14]
  pest or weed control at 500 g/ha: 10%
Soybean [15]
  plant injury at 500 g/ha: 20%
Soybean [16]
  plant injury at 500 g/ha: 20%
Rice [17]
  plant injury at 500 g/ha: 20%
Johnsongrass [18]
  pest or weed control at 500 g/ha: 20%
Velvetleaf [19]
  pest or weed control at 500 g/ha: 80%
Wheat [20]
  plant injury at 500 g/ha: 20%
Field Corn [21]
  plant injury at 500 g/ha: 80%
Barnyardgrass [22]
  pest or weed control at 500 g/ha: 50%
